Measurements: patent US20070167492A1, “Molluscicidal agents” (priority 2003, published 2007)

Experiments:
[1] = test system: Deroceras reticulatum (grey field slug); test: Example 2: pot re-test, treated winter wheat seed with 5 adult slugs per pot, 7 days; format: in vivo
How it was run: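 Pots sown with 40 treated winter wheat seeds on quartz sand over potting soil, each given 5 adult grey field slugs, kept at 18-19° C, ~95% RH, ~18 h light, no overhead irrigation; 4 replicates. Damaged seeds, intact plants, dead slugs and fecal pellets counted at 2, 3, 7 days; F-tests and Student tests.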

[2] = test system: Deroceras reticulatum (grey field slug); test: Example 1: pot test, treated winter wheat seed with 5 adult slugs per pot, 14 days; format: in vivo
How it was run: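 Fludioxonil-disinfected winter wheat seed (Kampa, 40 per pot) sown on quartz sand over potting soil with 5 adult slugs per pot; ±15° C., ±90% RH, 12 h light/12 h dark, 4 replicates. Damaged seeds, plants, dead slugs and fecal pellets counted up to day 14; F-tests and Student-tests.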

[3] = Example 2, 8 ml formulated per kg seed, 2 days after sowing
[4] = Example 2, 8 ml formulated per kg seed, 3 days after sowing
[5] = Example 2, 8 ml formulated per kg seed, 7 days after sowing
[6] = Example 2, 12 ml formulated per kg seed, 2 days after sowing
[7] = Example 2, 12 ml formulated per kg seed, 3 days after sowing
[8] = Example 2, 12 ml formulated per kg seed, 7 days after sowing
[9] = Example 2, after 2, 3 and 7 days
[10] = 2 ml formulated per kg seed, 2 days after sowing
[11] = 2 ml formulated per kg seed, 3 days after sowing
[12] = 2 ml formulated per kg seed, 7 days after sowing
[13] = 2 ml formulated per kg seed, 10 days after sowing
[14] = 2 ml formulated per kg seed, 14 days after sowing
[15] = 4 ml formulated per kg seed, 2 days after sowing
[16] = 4 ml formulated per kg seed, 3 days after sowing
[17] = 4 ml formulated per kg seed, 7 days after sowing
[18] = 4 ml formulated per kg seed, 10 days after sowing
[19] = 4 ml formulated per kg seed, 14 days after sowing
[20] = 8 ml formulated per kg seed, 2 days after sowing
[21] = 8 ml formulated per kg seed, 3 days after sowing
[22] = 8 ml formulated per kg seed, 7 days after sowing
[23] = 8 ml formulated per kg seed, 10 days after sowing
[24] = 8 ml formulated per kg seed, 14 days after sowing
[25] = 12 ml formulated per kg seed, 2 days after sowing
[26] = 12 ml formulated per kg seed, 3 days after sowing
[27] = 12 ml formulated per kg seed, 7 days after sowing
[28] = 12 ml formulated per kg seed, 10 days after sowing
[29] = 12 ml formulated per kg seed, 14 days after sowing

O=[N+]([O-])NC1=NCCN1Cc1ccc(Cl)nc1 [imidacloprid]
result of seed treatment against slugs (conclusion) ([1]; Example 2): acceptable result | percentage of damaged seeds after 7 days ([1]; Example 2, 8 ml formulated per kg seed): 23% | Mean number of damaged seeds per pot [1, 3]: 4.8 | Mean number of dead slugs per pot [1, 3]: 0 | Mean number of damaged seeds per pot [1, 4]: 9.0 | Mean number of dead slugs per pot [1, 4]: 0 | Mean number of damaged seeds per pot [1, 5]: 9.0 | Mean number of dead slugs per pot [1, 5]: 1.0 | percentage of damaged seeds after 7 days ([1]; Example 2, 12 ml formulated per kg seed): 12% | Mean number of damaged seeds per pot [1, 6]: 1.8 | Mean number of dead slugs per pot [1, 6]: 0 | Mean number of damaged seeds per pot [1, 7]: 3.8 | Mean number of dead slugs per pot [1, 7]: 0 | Mean number of damaged seeds per pot [1, 8]: 4.8 | Mean number of dead slugs per pot [1, 8]: 0.8 | number of fecal pellets per pot relative to the untreated control [1, 9]: significant reduction in the number of fecal pellets | plants present relative to the untreated seed [1, 9]: significantly more plants present | number of damaged seeds relative to the untreated seed ([1]; Example 2, two days after the start): significant reduction in the number of damaged seeds | Mean number of fecal pellets per pot ([1]; dosage 8 ml, 2 days): 6 | Mean number of plants present per pot ([1]; dosage 8 ml, 2 days): 7.8 | Mean number of fecal pellets per pot ([1]; dosage 8 ml, 3 days): 17 | Mean number of plants present per pot ([1]; dosage 8 ml, 3 days): 12.3 | Mean number of fecal pellets per pot ([1]; dosage 8 ml, 7 days): 29 | Mean number of plants present per pot ([1]; dosage 8 ml, 7 days): 18.3 | number of utilizable plants after 7 days ([1]; dosage 8 ml, 7 days): 13.5 | Mean number of fecal pellets per pot ([1]; dosage 12 ml, 2 days): 3 | Mean number of plants present per pot ([1]; dosage 12 ml, 2 days): 16.0 | Mean number of fecal pellets per pot ([1]; dosage 12 ml, 3 days): 17 | Mean number of plants present per pot ([1]; dosage 12 ml, 3 days): 24.5 | Mean number of fecal pellets per pot ([1]; dosage 12 ml, 7 days): 28 | Mean number of plants present per pot ([1]; dosage 12 ml, 7 days): 28.3 | number of utilizable plants after 7 days ([1]; dosage 12 ml, 7 days): 22.8 | number of utilizable plants after 14 days ([2]; 2 ml formulated per kg seed): 2.5 | percentage of damaged seeds after 14 days ([2]; 2 ml formulated per kg seed): 86% | Mean number of damaged seeds per pot [2, 10]: 2.8 | Mean number of dead slugs per pot [2, 10]: 0 | Mean number fecal pellets per pot [2, 11]: 33 | Mean number of damaged seeds per pot [2, 11]: 10.3 | Mean number of dead slugs per pot [2, 11]: 0 | Mean number of plants present per pot [2, 11]: 3.8 | Mean number fecal pellets per pot [2, 12]: 118 | Mean number of damaged seeds per pot [2, 12]: 33.0 | Mean number of dead slugs per pot [2, 12]: 0 | Mean number of plants present per pot [2, 12]: 2.8 | Mean number fecal pellets per pot [2, 13]: 109 | Mean number of damaged seeds per pot [2, 13]: 33.5 | Mean number of dead slugs per pot [2, 13]: 0.3 | Mean number of plants present per pot [2, 13]: 4.5 | Mean number fecal pellets per pot [2, 14]: 116 | Mean number of damaged seeds per pot [2, 14]: 34.3 | Mean number of dead slugs per pot [2, 14]: 0.5 | Mean number of plants present per pot [2, 14]: 3.3 | number of utilizable plants after 14 days ([2]; 4 ml formulated per kg seed): 0.8 | percentage of damaged seeds after 14 days ([2]; 4 ml formulated per kg seed): 81% | Mean number of damaged seeds per pot [2, 15]: 1.0 | Mean number of dead slugs per pot [2, 15]: 0 | Mean number fecal pellets per pot [2, 16]: 21 | Mean number of damaged seeds per pot [2, 16]: 7.3 | Mean number of dead slugs per pot [2, 16]: 0.3 | Mean number of plants present per pot [2, 16]: 2.3 | Mean number fecal pellets per pot [2, 17]: 108 | Mean number of damaged seeds per pot [2, 17]: 32.8 | Mean number of dead slugs per pot [2, 17]: 0.3 | Mean number of plants present per pot [2, 17]: 1.3 | Mean number fecal pellets per pot [2, 18]: 118 | Mean number of damaged seeds per pot [2, 18]: 31.5 | Mean number of dead slugs per pot [2, 18]: 0.3 | Mean number of plants present per pot [2, 18]: 4.0 | Mean number fecal pellets per pot [2, 19]: 126 | Mean number of damaged seeds per pot [2, 19]: 32.3 | Mean number of dead slugs per pot [2, 19]: 0.3 | Mean number of plants present per pot [2, 19]: 3.5 | number of utilizable plants after 14 days ([2]; 8 ml formulated per kg seed): 7.3 | percentage of damaged seeds after 14 days ([2]; 8 ml formulated per kg seed): 59% | Mean number of damaged seeds per pot [2, 20]: 1.3 | Mean number of dead slugs per pot [2, 20]: 0 | Mean number fecal pellets per pot [2, 21]: 11 | Mean number of damaged seeds per pot [2, 21]: 4.5 | Mean number of dead slugs per pot [2, 21]: 0 | Mean number of plants present per pot [2, 21]: 13.8 | Mean number fecal pellets per pot [2, 22]: 48 | Mean number of damaged seeds per pot [2, 22]: 23.8 | Mean number of dead slugs per pot [2, 22]: 0 | Mean number of plants present per pot [2, 22]: 9.0 | Mean number fecal pellets per pot [2, 23]: 65 | Mean number of damaged seeds per pot [2, 23]: 23.5 | Mean number of dead slugs per pot [2, 23]: 0.3 | Mean number of plants present per pot [2, 23]: 9.5 | Mean number fecal pellets per pot [2, 24]: 75 | Mean number of damaged seeds per pot [2, 24]: 23.8 | Mean number of dead slugs per pot [2, 24]: 0.5 | Mean number of plants present per pot [2, 24]: 10.5 | number of utilizable plants after 14 days ([2]; 12 ml formulated per kg seed): 14.3 | percentage of damaged seeds after 14 days ([2]; 12 ml formulated per kg seed): 22% | Mean number of damaged seeds per pot [2, 25]: 0.0 | Mean number of dead slugs per pot [2, 25]: 0 | Mean number fecal pellets per pot [2, 26]: 9 | Mean number of damaged seeds per pot [2, 26]: 4.3 | Mean number of dead slugs per pot [2, 26]: 1.5 | Mean number of plants present per pot [2, 26]: 11.8 | Mean number fecal pellets per pot [2, 27]: 26 | Mean number of damaged seeds per pot [2, 27]: 11.5 | Mean number of dead slugs per pot [2, 27]: 1.5 | Mean number of plants present per pot [2, 27]: 16.3 | Mean number fecal pellets per pot [2, 28]: 35 | Mean number of damaged seeds per pot [2, 28]: 7.8 | Mean number of dead slugs per pot [2, 28]: 1.5 | Mean number of plants present per pot [2, 28]: 19.0 | Mean number fecal pellets per pot [2, 29]: 38 | Mean number of damaged seeds per pot [2, 29]: 8.8 | Mean number of dead slugs per pot [2, 29]: 1.5 | Mean number of plants present per pot [2, 29]: 20 | damaged seeds relative to untreated seed ([2]; Example 1, 2 ml/kg): no controlling effect | damaged seeds relative to untreated seed ([2]; Example 1, 4 ml/kg): controlling effect only after 2 and 3 days | damaged seeds relative to untreated seed ([2]; Example 1, 8 ml/kg, after 3, 7 and 14 days): significant controlling effect | damaged seeds relative to the untreated pots ([2]; Example 1, 12 ml per kg of seed, at each observation): significantly less damaged seeds | fecal pellets relative to the untreated seed ([2]; Example 1, 12 ml per kg of seed, each observation): significantly less fecal pellets | dead slugs relative to the untreated seed ([2]; Example 1, 12 ml/kg, 3 and 7 days after the start): significantly more dead slugs | plants present relative to the untreated seed ([2]; Example 1, 12 ml/kg, at each observation): significantly more plants present | slug controlling effect (conclusion) ([2]; Example 1, dosage of 12 ml per kg of seed): good slug controlling agent
